The record followed here is patent US20100016367A1, “BIS-PYRINIDIUM COMPOUNDS” (priority 2006, published 2010).

In brackets after ≈: the same amount, converted by molar mass.

What all share (assay): In-vitro activity against dermatophytes, MIC
Format in all cases: cell-based

The subject of test [1] is Microsporum cookie. Conditions: 2 isolates.
Test [2] concerns Epidermophyton floccosum. Conditions: 5 isolates.
Test [3] deals with Trichophyton mentagrophytes. Conditions: 18 isolates.
In test [4] the test system is Trichophyton tonsurans. Conditions: 16 isolates.
The subject of test [5] is Trichophyton soudanense. The conditions noted are these: 3 isolates.
Test [6] has as its system Microsporum canis. Conditions: 5 isolates.
For test [7], the system named is Microsporum gypseum. The conditions noted are these: 5 isolates.
The test system of test [8] is Trichophyton rubrum. Conditions: 20 isolates.
Test [9] relates to Trichophyton violaceum. Conditions: 3 isolates.

As to `CCC(C)n1ncn(-c2ccc(N3CCN(c4ccc(OCC5COC(Cn6cncn6)(c6ccc(Cl)cc6Cl)O5)cc4)CC3)cc2)c1=O` (stereo not drawn) [ITC, Itraconazole], the “MIC Range, Microsporum cookie” value in test [1] was in the range of 4 to 8 µg/mL. For the same compound, the MIC in test [1] (Microsporum, read-out: MIC GM, Microsporum cookie) came to 6 µg/mL (≈ 8.5 µM); in test [2] (Epidermophyton floccosum, read-out: MIC GM, Epidermophyton floccosum), 0.226 µg/mL (≈ 0.32 µM); in test [3] (Trichophyton mentagrophytes, read-out: MIC GM, Trichophyton mentagrophytes) it was 1.68 µg/mL (≈ 2.38 µM); in test [4] (Trichophyton tonsurans, read-out: MIC GM, Trichophyton tonsurans), 1.65 µg/mL (≈ 2.33 µM); in test [5] (Trichophyton soudanense, read-out: MIC GM, Trichophyton soudanense) it was 3.42 µg/mL (≈ 4.85 µM); in [6] (Microsporum canis, read-out: MIC GM, Microsporum canis) it was 1.23 µg/mL (≈ 1.74 µM). Further, the MIC in test [7] (Nannizzia gypsea, read-out: MIC GM, Microsporum gypseum) is 3.68 µg/mL (≈ 5.22 µM); in [8] (Trichophyton rubrum, read-out: MIC GM (geometric mean of the MICs), Trichophyton rubrum), 1.96 µg/mL (≈ 2.77 µM); in test [9] (Trichophyton violaceum, read-out: MIC GM, Trichophyton violaceum), 3.3 µg/mL (≈ 4.68 µM). The “MIC Range, Epidermophyton floccosum” value in test [2] fell in the range of 0.063 to 0.5 µg/mL. For the same compound, in test [3], the “MIC Range, Trichophyton mentagrophytes” value fell in the range of 0.125 to 4 µg/mL. Besides, the MIC50 was 2 µg/mL (≈ 2.83 µM) in test [3] (Trichophyton mentagrophytes); 2 µg/mL (≈ 2.83 µM) in test [4] (Trichophyton tonsurans); 2 µg/mL (≈ 2.83 µM) in [8] (Trichophyton rubrum, MIC at which 50% of the isolates were inhibited). The MIC90 in test [3] (Trichophyton mentagrophytes) was 4 µg/mL (≈ 5.67 µM); in [4] (Trichophyton tonsurans), 4 µg/mL (≈ 5.67 µM); in test [8] (Trichophyton rubrum, MIC at which 90% of the isolates were inhibited), 4 µg/mL (≈ 5.67 µM). Moreover, in test [4], the “MIC Range, Trichophyton tonsurans” value is 0.25 to 4 µg/mL. Also, in test [5], the “MIC Range, Trichophyton soudanense” value lay in the range of 1 to 4 µg/mL. Also, in test [6], the “MIC Range, Microsporum canis” value was 0.25 to 8 µg/mL. Moreover, the “MIC Range, Microsporum gypseum” value in [7] lay within 1 to 8 µg/mL. For the same compound, the “MIC Range, Trichophyton rubrum” value in test [8] lay within 0.25 to 4 µg/mL. Moreover, in test [9], the “MIC Range, Trichophyton violaceum” value is 2 to 8 µg/mL.

In general, MIC refers to the smallest concentration in the dilution series that meets the test's criterion for growth inhibition. The MIC50 is the lowest concentration that inhibits either 50% of growth or 50% of the strains tested, depending on the study. Read a high MIC50 as lower susceptibility. Usually MIC90 stands for an inhibitory concentration at the 90% level, which refers to growth in some studies and to a panel of isolates in others.
